Source: patent publication US20240398841A1, “BLADDER PERFUSION PHARMACEUTICAL COMPOSITION, PREPARATION METHOD THEREFOR AND APPLICATION THEREOF” (priority 2020, published 2024)
“And” between values parts separate entries of the source, which are not always exact repeats. Identical values can stand only once. Counter-ions that a name gives are not always drawn.

Columns and labels:
[1] = system: MB49 bladder cancer in situ; assay: Doxorubicin (ADM)/R848 mixed lyophilized powder in bladder perfusion treatment of bladder tumor, tumor mass (Example G3); assay type: in vivo, mice; conditions: after two bladder perfusions; compound formulation with hydroxypropyl methylcellulose as penetration enhancer
Protocol: Example G3: Application of doxorubicin (ADM) used in combination with resiquimod (R848) in the treatment of bladder tumor.
The in-situ models of bladder cancer in mice were established by the same method as in Example G1, the mixed lyophilized powder formulation of doxorubicin and […] was prepared for later use, and the mice were randomly divided into groups (Blank: perfusion of 5% glucose solution: ADM: perfusion of the […] solution dissolved in normal saline: R848: perfusion of the resiquimod suspension dispersed in 5% glucose solution: ADM+R848: perfusion of the mixed lyophilized powder formulation of […] and resiquimod dissolved in 5% glucose solution), wherein hydroxypropyl methylcellulose was added as a penetration enhancer component before the compound formulation was used for bladder perfusion treatment. After two times of the bladder perfusion in each group, the bladder cancer in the mice was obtained by dissection, and the tumor mass was recorded.

[2] = system: bladder in situ tumor (fLuc-MB49 cells); assay: Combined perfusion of THP and R837 hydrochloride for bladder in situ tumor, in vivo fluorescence imaging and survival (Example B2); parameters: species or system mice; conditions: until 35 days
[3] = system: MB49 bladder cancer in situ; assay: Pirarubicin (THP)/R837 mixed lyophilized powder in bladder perfusion treatment of bladder cancer, tumor mass (Example G2); assay type: in vivo, mice; conditions: after two bladder perfusions, from tumor mass
Protocol: Example G2: Application of pirarubicin (THP) used in combination with R837 in the treatment of bladder cancer.
The mice were randomly divided into the following groups:
THP: perfusion of the pirarubicin solution dissolved in 5% glucose solution;
After two times of bladder perfusion treatment, the bladder cancer in the mice was obtained by dissection, and the tumor mass was recorded. […] The Guinness formula q=E(A+B)/(EA+EB−EA*EB) is used to calculate the drug synergy, wherein E(A+B) is the tumor inhibition rate in the compound formulation treatment group, and EA and EB are the tumor inhibition rates when the two components are used respectively.

[4] = system: bladder in situ tumor (fLuc-MB49 cells); assay: Combined perfusion of EPI and R837 hydrochloride in different ratios for bladder in situ tumor, fluorescence imaging and survival (Example B4); assay type: in vivo, mice; conditions: for Survival rate: 14th day
[5] = General formulation study of simple mixtures of epirubicin and imiquimod (stability, solubility versus pH); assay type: physicochemical
bladder cancer = conditions: TMX-101 gel formulation containing R837, bladder perfusion; cited from earlier work
[6] = system: bladder in situ tumor (fLuc-MB49 cells); conditions: mouse, in vivo
[7] = 1-9 days, two perfusions; EPI 60 μg, R837 360 μg; compared with blank group
Protocol: Six mice in each of the four groups were perfused with the same dose of blank ultrapure water (ddH2O), R837 (360 μg), EPI (60 μg) and EPI (60 μg)+R837 (360 μg) for 1 hour, once a week, twice, and the body weight was recorded every other day. […] Next, we used a similar method to evaluate whether there was a usage range for the attenuation effect when EPI and R837 were used in combination in a mass ratio (1:10). Six mice in each of the four groups were perfused with the same dose of blank ultrapure water (ddH2O), R837 (600 μg), EPI (60 μg) and EPI (60 μg)+R837 (600 μg) for 1 hour, and the body weights was recorded every other day.

[8] = Day 0 (before the first perfusion)

| Structure (SMILES) | tumor inhibition rate [1] [%] | tumor inhibition rate [3] [%] | Survival rate [4] [%] | Mean fluorescence intensity of bladder in situ tumor tissue, group Mean [4, 8] | Mean fluorescence intensity of bladder in situ tumor tissue, group Mean ([4]; Day 7) | Mean fluorescence intensity of bladder in situ tumor tissue, group Mean ([4]; Day 14) | other results |
| --- | --- | --- | --- | --- | --- | --- | --- |
| COc1cccc2c1C(=O)c1c(O)c3c(c(O)c1C2=O)C[C@@](O)(C(=O)CO)C[C@@H]3O[C@H]1C[C@H](N)[C@H](O)[C@H](C)O1 [DOX, doxorubicin hydrochloride] | 8.6 | – | – | – | – | – | – |
| COc1cccc2c1C(=O)c1c(O)c3c(c(O)c1C2=O)C[C@@](O)(C(=O)CO)C[C@@H]3O[C@H]1C[C@H](N)[C@H](O[C@@H]2CCCCO2)[C@H](C)O1 [THP, pirarubicin hydrochloride] | – | 28.23 | – | – | – | – | Survival rate [2]: 60% |
| CC(C)Cn1cnc2c(N)nc3ccccc3c21 [Sample R837, imiquimod] | – | 38.33 | 100 | 1.877 10^5 | 5.922 10^5 | 9.287 10^5 | Mean fluorescence intensity of bladder in situ tumor tissue (single mice) ([4]; Day 7, listed as B4-2): 6.37 10^5 and 5.49 10^5 and 5.35 10^5 and 6.92 10^5 and 6.05 10^5; Mean fluorescence intensity of bladder in situ tumor tissue (single mice) ([4]; Day 14, listed as B4-2): 7.97 10^5 and 10.2 10^5 and 9.04 10^5 and 12.7 10^5 and 7.53 10^5 and 8.28 10^5; pH above which imiquimod precipitates from the solution [5]: > 5.0; safety in clinical trial (bladder cancer): good safety; tumor fluorescence intensity / tumor inhibition effect [6]: no significant tumor inhibition effect |
| COc1cccc2c1C(=O)c1c(O)c3c(c(O)c1C2=O)C[C@@](O)(C(=O)CO)C[C@@H]3O[C@H]1C[C@H](N)[C@@H](O)[C@H](C)O1 [EPI, epirubicin hydrochloride] | – | – | 67 | 1.957 10^5 | 3.893 10^5 | 10.8 10^5 | Mean fluorescence intensity of bladder in situ tumor tissue (single mice) ([4]; Day 14, listed as B4-3, hydrochloride): 12.8 10^5 and 10.9 10^5 and 8.7 10^5; body weights of the mice [7]: significantly lower |
| CCOCc1nc2c(N)nc3ccccc3c2n1CC(C)(C)O [Sample R848, resiquimod] | 21.8 | – | – | – | – | – | – |
